One data set relates to CYP2C11. Kind of data set: CYP inhibition assay in OVX rat liver microsomes. It counts as in vitro ADME. Conditions: for inhibition at 60 min, 10 μM: female, liver microsomes from ovariectomized (OVX) rats, pH 7.4, individual constituents 10 μM. The protocol: (§1) CYP-mediated metabolite formation from a substrate (200 μM each) or the formation of glucuronide conjugates from the UGT isozyme-specific substrate (200 μM each) was monitored to determine the isozyme activity. Typical incubation was performed with rat (1 mg/mL) or human (0.5 mg/mL) liver microsomes in the presence of an appropriate cofactor in a buffer system (pH 7.4) at 37 °C for 60 min as described previously.
(§2) The HPLC system (Agilent, Santa Clara, CA, USA) consisted of an Agilent 1200 binary pump, DAD, and Agilent 1260 autosampler. A Kinetex C18 reverse-phase column (5 μm, 4.6 × 150 mm) (Phenomenex, Torrance, CA, USA) protected by a KrudKatcher Ultra HPLC in-line filter (Phenomenex) was used for separation. HPLC conditions to determine the isozyme-specific metabolites and major constituents in OFIE are described in the Supplementary Materials. LC-electrospray (ESI)-tandem mass spectrometry (MS^2) analysis was employed to detect glucuronide products. An Linear Trap Quadropole (LTQ) linear ion trap mass spectrometer (Thermo Scientific, Waltham, MA, USA) with an ESI source was coupled with an Agilent 1200 HPLC system.
In general terms: Microsomes from liver hold many membrane-bound enzymes, among them those of drug oxidation.

In data set [1] the test system is CYP3A1. Kind of data set: CYP inhibition assay in OVX rat liver microsomes. It counts as in vitro ADME. Conditions: female, liver microsomes from ovariectomized (OVX) rats, pH 7.4, individual constituents 10 μM. How it is done:
as §1, §2

The target in another data set is T1, CYP1A2 (Homo sapiens, UniProt P05177).
T1 construct: tissue Corning 452117; host or cells: pooled human liver microsomes (150 donors)
T1 sequence (P05177 1-516): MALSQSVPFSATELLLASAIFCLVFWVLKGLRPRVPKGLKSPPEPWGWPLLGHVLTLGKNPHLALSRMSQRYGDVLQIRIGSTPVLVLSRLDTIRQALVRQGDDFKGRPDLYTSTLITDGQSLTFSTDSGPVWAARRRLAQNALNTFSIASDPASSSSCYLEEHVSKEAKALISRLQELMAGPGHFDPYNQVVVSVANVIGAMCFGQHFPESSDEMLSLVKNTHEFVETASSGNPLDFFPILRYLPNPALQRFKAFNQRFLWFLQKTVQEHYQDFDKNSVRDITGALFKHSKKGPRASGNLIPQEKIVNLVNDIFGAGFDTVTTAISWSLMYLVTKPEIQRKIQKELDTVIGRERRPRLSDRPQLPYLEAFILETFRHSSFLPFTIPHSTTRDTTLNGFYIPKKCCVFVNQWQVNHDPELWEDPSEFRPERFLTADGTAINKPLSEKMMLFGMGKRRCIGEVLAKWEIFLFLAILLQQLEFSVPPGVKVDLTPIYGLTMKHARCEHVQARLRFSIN
Kind of data set: CYP inhibition assay in human liver microsomes. Format: in vitro ADME. Conditions: pooled human liver microsomes, individual constituents 10 μM; for inhibition at 60 min, 10 μM: pH 7.4. The protocol:
as §1
The HPLC system (Agilent, Santa Clara, CA, USA) consisted of an Agilent 1200 binary pump, DAD, and Agilent 1260 autosampler. A Kinetex C18 reverse-phase column (5 μm, 4.6 × 150 mm) (Phenomenex, Torrance, CA, USA) protected by a KrudKatcher Ultra HPLC in-line filter (Phenomenex) was used for separation. […] LC-electrospray (ESI)-tandem mass spectrometry (MS^2) analysis was employed to detect glucuronide products. An Linear Trap Quadropole (LTQ) linear ion trap mass spectrometer (Thermo Scientific, Waltham, MA, USA) with an ESI source was coupled with an Agilent 1200 HPLC system.

The subject of data set [2] is CYP2B1. Kind of data set: hepatic mRNA expression (qPCR) in OVX rats after 5-week oral administration. It counts as in vivo. The settings on record: OVX rat liver; E2 0.5 mg/kg/day oral, 5 weeks; vs vehicle control. (In general: In qPCR the cycle at which signal appears reflects the starting amount.)
Protocol: (§5) After 14 days of endogenous hormonal decline, rats were randomly divided into several groups (n = 6 per group) and subjected to oral administration of olive oil (control), E2 (0.5 mg/kg/day, positive control) or OFIE (250 and 500 mg/kg/day) via gastric gavage for 5 weeks. […] Administration via forced gastric gavage was performed to ensure the exact amount of test compounds be dosed to each animal. […] Animals were weighed daily and dosage was changed weekly according to weight gain.
(§6) The total RNA was isolated from homogenized rat liver tissue using a Nucleospin RNA/Protein kit (Macherey-Nagel, Düren, Germany) according to the manufacturer’s manual. The cDNA was synthesized from the total RNA (2 μg) using oligo (dT) and M-MLV reverse transcriptase (Promega, Madison, WI, USA). A qPCR analysis was performed to determine the mRNA levels of both hepatic CYP and UGT isozymes on an ABI Prism 7500 Sequence Detection System (Applied Biosystems, Foster City, CA, USA) using SYBR Green PCR Master Mix (Toyobo, Osaka, Japan) and a gene-specific primer set (Table S1 for primer sequences). The ABI 7500 Software (v2.0.6, Foster City, CA, USA) was used for the estimation of CT. The 2^−ΔΔCt method was applied for relative quantification. […] The results were expressed as fold change when the gene expression level in the vehicle control-treated sample was set as 1.
Another data set concerns CYP2D1. The description is as above. It counts as in vivo. The settings on record: OVX rat liver; E2 0.5 mg/kg/day oral, 5 weeks; vs vehicle control. How it is done:
(§3) Rats were bilaterally ovariectomized under 1.5–3% isoflurane anesthesia as described previously. […] Administration via forced gastric gavage was performed to ensure the exact amount of test compounds be dosed to each animal. […] Animals were weighed daily and dosage was changed weekly according to weight gain. Animals were euthanized by carbon dioxide inhalation to minimize aversion or distress. Liver microsomal fractions were prepared from livers of OVX rats using differential centrifugation as described previously.
(§4) The total RNA was isolated from homogenized rat liver tissue using a Nucleospin RNA/Protein kit (Macherey-Nagel, Düren, Germany) according to the manufacturer’s manual. The cDNA was synthesized from the total RNA (2 μg) using oligo (dT) and M-MLV reverse transcriptase (Promega, Madison, WI, USA). A qPCR analysis was performed to determine the mRNA levels of both hepatic CYP and UGT isozymes on an ABI Prism 7500 Sequence Detection System (Applied Biosystems, Foster City, CA, USA) using SYBR Green PCR Master Mix (Toyobo, Osaka, Japan) and a gene-specific primer set (Table S1 for primer sequences).

A further data set relates to UGT2B1. Described as above. The settings on record: OVX rat liver; E2 0.5 mg/kg/day and both doses of OFIE (250, 500 mg/kg/day) oral, 5 weeks; range over the groups. It counts as in vivo. How it is done:
as §3, §4

For data set [3], the system named is CYP3A1. Described as above. Format: in vivo. The settings on record: OVX rat liver; E2 0.5 mg/kg/day oral, 5 weeks; vs vehicle control.
Protocol: as §5, §6
The subject of data set [4] is CYP2B1. Kind of data set: ex vivo activity assay in liver microsomes of orally treated OVX rats. The settings on record: E2 0.5 mg/kg/day oral, 5 weeks, control group set as 1. On the set-up: species or system rat. How it is done:
as §2, with “Rats were bilaterally ovariectomized under 1.5-3% isoflurane anesthesia as described previously. […] Administration via forced gastric gavage was performed to ensure the exact amount of test compounds be dosed to each animal. […] Animals were weighed daily and dosage was changed weekly according to weight gain. Animals were euthanized by carbon dioxide inhalation to minimize aversion or distress. Liver microsomal fractions were prepared from livers of OVX rats using differential centrifugation as described previously. […] The HPLC” for “The HPLC”

The test system of a further data set is UGT isoforms. The data set is described as above. On the set-up: species or system rat. The settings on record: E2 0.5 mg/kg/day oral, 5 weeks. The protocol: as §2, with “Rats were bilaterally ovariectomized under 1.5-3% isoflurane anesthesia as described previously. […] Administration via forced gastric gavage was performed to ensure the exact amount of test compounds be dosed to each animal. […] Animals were weighed daily and dosage was changed weekly according to weight gain. Animals were euthanized by carbon dioxide inhalation to minimize aversion or distress. Liver microsomal fractions were prepared from livers of OVX rats using differential centrifugation as described previously. […] The HPLC” for “The HPLC”

For data set [5], the target named is T2, human constitutive androstane receptor (hCAR) (Homo sapiens, UniProt Q14994).
T2 construct: expressed in transfected cells; host or cells: HepG2
T2 sequence (Q14994 1-352): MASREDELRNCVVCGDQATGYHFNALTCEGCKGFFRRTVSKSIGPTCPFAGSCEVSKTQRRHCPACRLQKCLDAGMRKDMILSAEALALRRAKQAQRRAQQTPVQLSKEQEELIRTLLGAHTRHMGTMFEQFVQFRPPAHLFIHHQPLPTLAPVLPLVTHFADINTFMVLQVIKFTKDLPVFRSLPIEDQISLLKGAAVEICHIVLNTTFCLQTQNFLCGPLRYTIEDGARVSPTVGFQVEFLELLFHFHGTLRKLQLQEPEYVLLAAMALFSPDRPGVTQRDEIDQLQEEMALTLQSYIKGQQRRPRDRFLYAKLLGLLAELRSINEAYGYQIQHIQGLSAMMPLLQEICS
Kind of data set: CAR-mediated CYP2B6 promoter luciferase reporter assay in HepG2 cells. Format: cell-based. The settings on record: E2, concentration not given, 24 h, vs DMSO. For orientation: A reporter such as luciferase makes a cellular process visible.

For data set [6], the target named is T3, human pregnane X receptor (hPXR) (Homo sapiens, UniProt O75469).
T3 construct: expressed in transfected cells; host or cells: HepG2
T3 sequence (O75469 1-434): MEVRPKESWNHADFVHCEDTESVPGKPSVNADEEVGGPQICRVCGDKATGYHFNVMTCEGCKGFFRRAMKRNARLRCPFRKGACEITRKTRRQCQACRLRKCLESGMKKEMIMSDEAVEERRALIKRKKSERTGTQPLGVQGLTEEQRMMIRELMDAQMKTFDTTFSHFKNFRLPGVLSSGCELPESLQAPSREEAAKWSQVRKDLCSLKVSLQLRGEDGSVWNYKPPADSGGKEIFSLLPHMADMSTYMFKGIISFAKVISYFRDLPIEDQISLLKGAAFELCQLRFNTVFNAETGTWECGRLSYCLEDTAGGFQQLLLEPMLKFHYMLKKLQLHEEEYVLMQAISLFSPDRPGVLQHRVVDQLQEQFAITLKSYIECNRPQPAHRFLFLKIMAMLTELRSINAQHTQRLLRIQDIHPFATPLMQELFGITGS
The data set can be described thus: PXR-mediated CYP3A4 promoter luciferase reporter assay in HepG2 cells. It counts as cell-based. Conditions: 24 h, vs DMSO; for induction in the PXR promoter activity: individual flavonoids 10 μM. The protocol:
The human hepatocarcinoma cell line HepG2 was purchased from the […] (Manassas, VA, USA) and maintained in Dulbecco’s modified Eagle’s essential medium (DMEM) containing 10% fetal bovine serum, 1% nonessential amino acids, 1% GlutaMAX, and 1% antibiotics/antimycotics in a 5% CO2 atmosphere at 37 °C.
The expression plasmid for human constitutive androstane receptor (hCAR; pcDNA3-CAR) and pGL3-CYP2B6 luciferase construct were kindly provided by Dr. Hongbing Wang (University of Maryland, College Park, MD, USA). The plasmid for human pregnane X receptor (hPXR; pcDNA3-PXR) and pGL3-CYP3A4 luciferase construct were generous gifts from Masahiko Negishi (National Institutes of Health, Bethesda, MD, USA). HepG2 cells were seeded at a density of 1.5 × 10^5 cells/well into a 24-well plate. On the next day, the cells were transfected with 0.25 μg of either pcDNA3-CAR or pcDNA3-PXR and 0.25 μg of promoter luciferase plasmid (i.e., either pGL3-CYP2B6 or pGL3-CYP3A4) using Lipofectamine 2000 (Invitrogen, Carlsbad, CA, USA) according to the manufacturer’s instructions. To normalize the transfection efficiency, the pRL-TK plasmid (0.25 μg/well; Promega), which contains cDNA encoding Renilla luciferase, was cotransfected. The transfected cells were grown for 24 h, treated with various test materials, and incubated for an additional 24 h. The luciferase activities in the cell lysates were measured using the dual luciferase assay system (Promega) with a SpectraMax i3x (Molecular Devices, San Jose, CA, USA). Data are reported as a relative luciferase activity, which is the firefly luciferase reading divided by the Renilla luciferase reading.

The next data set has as its target T4, CYP3A4 (Homo sapiens, UniProt P08684).
T4 construct: tissue Corning 452117; host or cells: pooled human liver microsomes (150 donors)
Also noted: method as in earlier work. Conditions: range given jointly for quercetin and kaempferol on CYP1A2 and CYP3A4; Von Moltke et al.; read-out: IC50, inhibition of CYP3A4; cited from earlier work.

The structures appear in SMILES notation.

T4 sequence (P08684 whole entry): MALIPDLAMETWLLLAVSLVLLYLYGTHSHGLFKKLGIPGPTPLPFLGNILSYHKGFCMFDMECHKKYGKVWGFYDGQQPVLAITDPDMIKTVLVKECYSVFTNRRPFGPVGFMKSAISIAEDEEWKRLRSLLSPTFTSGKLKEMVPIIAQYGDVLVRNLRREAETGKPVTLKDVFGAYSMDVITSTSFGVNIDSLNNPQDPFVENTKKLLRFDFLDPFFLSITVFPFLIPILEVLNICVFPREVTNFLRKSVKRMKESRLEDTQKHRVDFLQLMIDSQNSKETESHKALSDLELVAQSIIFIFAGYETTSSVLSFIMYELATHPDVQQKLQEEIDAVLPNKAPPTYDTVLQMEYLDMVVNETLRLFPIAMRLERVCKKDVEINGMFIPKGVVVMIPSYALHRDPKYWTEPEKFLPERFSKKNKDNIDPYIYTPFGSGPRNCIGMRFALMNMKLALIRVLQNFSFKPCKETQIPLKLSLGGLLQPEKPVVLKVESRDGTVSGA

Regarding `O=c1c(O)c(-c2ccc(O)c(O)c2)oc2cc(O)cc(O)c12` [quercetin], the inhibition at 60 min, 10 μM amounted to 18% with CYP2C11, 10% with CYP3A1 [1] and 31% against CYP1A2.
For the compound `C[C@]12CC[C@@H]3c4ccc(O)cc4CC[C@H]3[C@@H]1CC[C@@H]2O` [E2, 17β-Estradiol], the “increase in mRNA expression of CYP2B1” value with CYP2B1 [2] amounted to 7.7 fold. In the data set with CYP2D1, the “increase in mRNA expression of CYP2D1” value was 2.6 fold. In the data set on UGT2B1, the “increased expression of UGT2B1 mRNA” value is listed as 3.8–6.5 folds. Also, in the data set with CYP3A1 [3], the “increase in mRNA expression of CYP3A1” value stood at 12 fold. Moreover, in the data set on CYP2B1 [4], the “increase in activity of CYP2B1” value was 2.7 fold. The “change in activities of all UGT isoforms examined” value in the data set on UGT isoforms is recorded as “no changes”. The “increase in CAR-mediated CYP2B6 reporter activity” value in data set [5] turned out to be 4.8 fold. Also, in data set [6] (E2, concentration not given), the “PXR-mediated CYP3A4 reporter activity” value is “did not alter”.
For `COc1cc(-c2oc3cc(O)cc(O)c3c(=O)c2O[C@@H]2O[C@H](CO[C@@H]3O[C@@H](C)[C@H](O)[C@@H](O)[C@H]3O)[C@@H](O)[C@H](O)[C@H]2O)ccc1O` [narcissin], in [6], the “induction in the PXR promoter activity” value is “significant induction”. Also, the inhibition at 60 min, 10 μM in the data set on CYP3A1 [1] was found to be 10%. In addition, the “inhibition of human CYP1A2 activity” value at CYP1A2 is given as “did not significantly inhibit”.
With `O=c1c(O)c(-c2ccc(O)cc2)oc2cc(O)cc(O)c12` [kaempferol], the results for the inhibition at 60 min, 10 μM in the data set with CYP2C11 and with CYP3A1 [1] were 10% and 20%, respectively. The concentration for half-maximal inhibition (IC50) at CYP3A4 is 10 to 16 µM.
Turning to `C[C@@H]1O[C@@H](OC[C@H]2O[C@@H](Oc3c(-c4ccc(O)c(O)c4)oc4cc(O)cc(O)c4c3=O)[C@H](O)[C@@H](O)[C@@H]2O)[C@H](O)[C@H](O)[C@H]1O` [rutin], in [6], the “induction in the PXR promoter activity” value is recorded as “significant induction”.
`COc1cc(-c2oc3cc(O)cc(O)c3c(=O)c2O)ccc1O` [isorhamnetin]: the “inhibition of rat CYP2C11 activity” value in the data set on CYP2C11 (individual constituents 10 μM) is on record as “did not result in a significant inhibition”. At CYP1A2, this compound had an inhibition at 60 min, 10 μM of 40%.

Usually inhibition stands for the drop in the measured response relative to a control, in per cent. A higher inhibition goes with a strong effect. For orientation: IC50 means the concentration needed to halve the response being measured.

(Values after publication PMC6274835, “Inhibitory and Inductive Effects of Opuntia ficus indica Extract and Its Flavonoid Constituents on Cytochrome P450s and UDP-Glucuronosyltransferases” (International Journal of Molecular Sciences, 2018).)
